Laboratory results from US4374857A, “Method of inhibiting L-tryptophan to serum albumin binding” (Her Majesty the Queen in right of Canada, as represented by …, priority 1982, dated 1983).
“Also recorded” adds a separate entry of the source.

Molecular target: T1, human serum albumin (Homo sapiens, UniProt P02768)
T1 construct: purchased Sigma, St. Louis, MO
Assay: Equilibrium dialysis of 14C-L-TRP binding to human serum albumin in presence of ligands (Scatchard plots)
Details: for effect on L-TRP binding to albumin: one molar equivalent of ligand; for effect on L-TRP binding capacity of albumin: second and third molar equivalents of ligand; for reduction of the affinity (Ka) of L-TRP for albumin: two moles of ligand per mole albumin, equilibrium dialysis, 37° C., pH 7.4
Protocol: Human serum albumin (Fraction V) was purchased from Sigma, St. Louis, MO. The protein was defatted with activated charcoal according to Chen, R. F. (1967), J. Biol. Chem 242: 173-181 and monomeric albumin purified as previously described in Soltys, B. J. and Hsia, J. C. (1977), J. Biol. Chem. 252: 4043-4048. Protein concentration was determined by absorption of ultraviolet light, assuming E279 nm^1% =5.30 according to Clark, P., Rachinsky, M. R. and Foster, J. F. (1962), J. Biol. Chem. 237: 2509-2513. The sodium salt of cis-parinaric acid was dissolved in 1×10^-4 Malbumin in Ringer's buffer. The Ringer's buffer contained 110 mM NaCl, 5 mM KCl, 1.2 mM MgSO4, 1.2 mM KH2 PO4 and 10 mM Na2 HPO4 at a pH of 7.4 at 37° C. L-tryptophan, stearate and bilirubin were also purchased from Sigma, St. Louis, MO. cis-parinaric acid was purchased from Molecular Probes Inc., Plano, TX. L-[side chain-3 -^14 C]-tryptophan (^14 C-L-TRP) was purchased from New England Nuclear, Boston, Mass. Fatty acids and bilirubin were dissolved in albumin solution essentially as previously described in Soltys, B. J. and Hsia, J. C. (1977), J. Viol. Chem. 252: 4043-4048. Briefly, fatty acid or bilirubin (sodium salt) in methanol was dried under vacuum in dim light to form a thin film in a small glass vial. The albumin solution was added to the vial and gently blended on a Vortex mixer until optically clear.
Equilibrium dialysis cells (approximately 200 μl total capacity) with injection/sampling ports were used. Dialysis membranes (Canlab, Toronto, Ont), previously boiled in distilled water, were placed on one half-cell and then the two half-cells were bolted together. 100 ul of albumin (1×10^-4 M), or its ligand complex was added to one side of the dialysis cells, while 100 μl of a solution of ^14 C-L-TRP was added to the other side.
The cells were sealed with tape and incubated with slight oscillation at 37±0.5° C. in a jacketed incubator (Model 3314, Forma Scientific, Marietta, OH). The cells contained total amount of L-TRP varying from 0.5 to 20 times the number of moles of albumin. After six hours incubation, 25 μl samples were drawn from the albumin side and the buffer side of each cell. These were counted in 6 ml plastic scintillation vials (Canlab) containing 5 ml Aquasol (New England Nuclear) in a liquid scintillation counter (LS 9000, Beckman, Irvine, CA). A quench curve was constructed to correct for quenching of counts by bilirubin.
The equation for the Scatchard plot is
where n is the number of binding sites and Ka is the apparent association constant. Thus the r-intercept is n and the r/c-intercept is nK (a measure of binding capacity), while the negative slope yields the Ka.

T1 sequence (P02768 25-609): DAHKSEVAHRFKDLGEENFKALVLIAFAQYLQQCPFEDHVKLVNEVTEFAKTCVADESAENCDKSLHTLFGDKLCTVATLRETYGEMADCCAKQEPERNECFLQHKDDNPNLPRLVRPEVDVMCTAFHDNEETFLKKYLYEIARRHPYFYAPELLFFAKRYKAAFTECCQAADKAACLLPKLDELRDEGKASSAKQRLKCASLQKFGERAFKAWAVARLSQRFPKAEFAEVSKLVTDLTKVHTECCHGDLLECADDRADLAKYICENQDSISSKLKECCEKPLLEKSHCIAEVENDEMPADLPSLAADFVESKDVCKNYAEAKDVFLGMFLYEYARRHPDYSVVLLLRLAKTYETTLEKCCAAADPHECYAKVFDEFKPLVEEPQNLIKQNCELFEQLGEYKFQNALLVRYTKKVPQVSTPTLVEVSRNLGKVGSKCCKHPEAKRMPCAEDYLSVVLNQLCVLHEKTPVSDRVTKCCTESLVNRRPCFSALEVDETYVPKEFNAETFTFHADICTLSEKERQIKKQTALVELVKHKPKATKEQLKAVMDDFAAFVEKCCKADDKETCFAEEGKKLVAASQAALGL

displacement of albumin-bound tryptophan (2:1 ligand-to-albumin ratio) | inhibitory effect on L-TRP binding capacity of albumin (higher molar ratios (2.0 to 4.0) of ligand) | effect on L-TRP binding capacity of albumin | number of primary binding sites on human serum albumin (Scatchard plot without competing ligand (FIG. 1)) | SMILES | effect on specific (primary site) L-TRP binding capacity of albumin (4.0 moles of ligand per mole albumin) | effect on L-TRP binding to albumin | reduction of the affinity (Ka) of L-TRP for albumin
up to 90% | most effective | abolished | – | CC\C=C/C=C/C=C/C=C\CCCCCCCC(=O)O [cis-parinaric acid, cis, trans, trans, cis-9,11,13,15-octadecatetraenoic acid] | completely blocked; also recorded: completely abolished | strong inhibitory effect | 80%
– | – | – | – | CCCCCCCCCCCCCCCCCC(=O)O [stearate, reference compound] | – | – | 20%
– | – | – | one | N[C@@H](Cc1c[nH]c2ccccc12)C(=O)O [L-TRP, L-tryptophan] | – | – | –
– | – | progressive inhibition | – | C=CC1=C(C)/C(=C/c2[nH]c(Cc3[nH]c(/C=C4\NC(=O)C(C)=C4C=C)c(C)c3CCC(=O)O)c(CCC(=O)O)c2C)NC1=O [bilirubin, reference compound] | – | did not affect; also recorded: little effect | –
